From patent publication US20250090865A1, “LESIONAL DOSIMETRY FOR TARGETED RADIOTHERAPY OF CANCER” (Memorial Sloan-Kettering Cancer Center, priority 2021, published 2025)
Where two headings read alike, the source gives them in different places.

How the values were obtained:
[1] = system: individual lesions of metastatic thyroid cancer; experiment: ^124I PET/CT imaging of lesion radioiodine uptake; format: in vivo, human; details: 48 h after oral ^124I
From the text: Population. The present study includes consecutive 21 patients studied under two different RB-approved protocols who underwent imaging. Patients who were considered candidates for RAI treatment of DTC were enrolled. All patients had histologically confirmed, metastatic thyroid cancer.
Dosimetry and estimation of average lesion uptake. […] (FIG. 9).

[2] = median of 21 patients
Experimental: Maximum Tolerated Activity (MTA).
To perform these studies, serial blood samples and total body measurements were conducted to determine β- and photon radiation dose contributions to blood (a proxy for the dose-limiting bone marrow) from a pre-therapy tracer administration of either ^124I or ^131I.

[3] = system: individual lesions of metastatic thyroid cancer
From the text: Predicting AUC based on a single time point. One goal of this study was to use a single time point to predict the overall area under the radioiodine lesion activity retention curve to estimate the radiation-absorbed dose to lesions without the need for costly additional PET/CT imaging to fully characterize the kinetic behavior. […] For this estimation, the unit is the lesion, and a generalized estimating equation approach is used to estimate the parameters (intercept, slope, and robust variance matrix) accounting for the correlation between lesions in the same patient. Log-transformed values of the uptake and doses are used to ensure the data are normally distributed.
Second, using the estimations for R and the covariance matrix, a prediction interval (PI) is calculated. A PI differs from a confidence interval, as it aims to predict with 95% confidence where future measurements will fall. In our case, if we observed the same value of SUV at 48 h for 100 new lesions, the PI is the range in which 95 of those lesions' AUCs will be found. As difficulties arose when analytically constructing the PI, simulated prediction was used to calculate PIs following the steps detailed in Gelman and Hill, Data Analysis Using Regression and Multilevel/Hierarchical Models (1st Edition, 2007) and summarized in Appendix A.
To validate the accuracy of the prediction, a leave-one-patient-out cross-validation approach was used. For each patient i (i=1, . . . , n), the linear regression parameters are re-estimated using n−1 patients (excluding i), and PIs are calculated for each lesion in patient i based on their measured predictor values.
For those lesions, the actual observed AUC is then compared to the PI. When using 95% PI, it is expected that 95% of the observed values will fall into the corresponding PIs; i.e., 5% will be outside the prediction. In addition, for each left-out patient, an error of prediction is calculated corresponding to the squared difference between the predicted and true AUC values for each lesion. This squared error is average over all the lesions of all the patients to obtain a cross-validated error.
(§1) The target radiation dose of 2000 cGy was chosen because doses above this level are often used as the threshold for patients to receive further radioiodine treatment. Based on the PI now available for the AUC, a simple calculation of the relationship between ^124I and ^131I uptake can yield a PI for the dose [dlow−dhigh]. […] Thus, the higher boundary (dhigh) corresponds to the activity to treat 97.5% of the lesions with the given uptake. By varying this boundary, it is possible to select an activity that will target 95%, 90%, or fewer of the lesions.

[4] = system: metastatic thyroid cancer; details: patients with any lesion with predicted dose >2000 cGy
From the text: Prediction of activity to deliver 2000 cGy. An operational definition in the methods disclosed herein is that a patient with any lesion with a predicted dose of >2000 cGy would likely respond to treatment. […] A total of 208 lesions are included in the analysis. The prediction is limited for lesions with an SUV >1, as no treatment is planned for lesions with no uptake. Lesions that received no treatment (n=39) were included in the analysis, as prediction is still feasible. […] In (SUV_48_)___.

[5] = system: individual lesions of metastatic thyroid cancer; remark: listed apart in the source
Experimental: Dosimetry and estimation of average lesion uptake. A workflow was established for four-time point measurement of individual lesion radioiodine kinetics to generate area under the curve (AUC) estimation for accurate determination of the radiation dose in Gray (Gy) to individual lesions in patients undergoing RAI therapy for DTC. Positron emission tomography (PET/CT) imaging was performed after oral administration of 222 MBq (6.0 mCi) of ^124I—NaI (3D Imaging, Waco, TX). Whole-body imaging was performed at 4, 24, 48, and 96 hours after oral administration of the radioactivity (FIG. 4). Regions of interest were obtained over all visible lesions >0.5 cm within the body and multiple parameters were obtained for later analysis. The following parameters were captured in a database for each patient and each lesion: size in three dimensions (cm); standardized uptake value (SUV), maximum and average; lean body weight; and activity concentration in microcurie/gram. (FIG. 9). For these patients, the best clearance fitting curve was estimated using a dual exponential equation model comprising lesion uptake and clearance. Prior to integration, clearance fitting was adjusted to replace the decay constant of ^124I with ^131I, the therapy isotope of interest, and then integrated to obtain the AUC. This AUC was multiplied by the equilibrium dose constant for the non-penetrating P-emissions of ^131I, yielding the lesion-absorbed dose in Gy.
Range of ^131I activity to treat a chosen efficacy rate for RAI in mDTC patients. A multi-disciplinary team of nuclear medicine specialists, endocrinologists, medical oncologists, and medical physicists met weekly to make treatment decisions based on the PET data generated, including data from the methods disclosed herein.
as §1
The full parameter data set consists of: anatomical descriptor, mean size (cm), lesion dose per projected unit millicurie of administered ^131I activity with and without partial volume correction (5), half-life based on a linear slop between day 3 and 5 as well as based on exponential curve fitting, area under the curve based on an integrated curve fit, estimated activity per gram at 48 and 72 hours post-administration, SUV and SUL (based on lean body mass) at 24, 48, and 72 hours post-administration, the administered activity to deliver 2,000 cGy, the radiation dose estimate resulting from the actual therapeutic amount administered to the patient, and the maximum projected dose that could have been achieved had the maximum tolerated activity been administered. This dataset was used as the input to derive a statistical model to predict the radiation dose to lesions.

[124I-].[Na+] [^124I, ^124I—NaI]
SUV(48 h) ([1]; patient 1, 13 lesions): 8.03
SUV(48 h) ([1]; patient 2, 18 lesions): 80.1
SUV(48 h) ([1]; patient 3, 14 lesions): 3.25
SUV(48 h) ([1]; patient 4, 12 lesions): 7.4
SUV(48 h) ([1]; patient 5, 10 lesions): 1.85
SUV(48 h) ([1]; patient 6, 16 lesions): 27.8
SUV(48 h) ([1]; patient 7, 23 lesions): 35
SUV(48 h) ([1]; patient 8, 6 lesions): 1.73
SUV(48 h) ([1]; patient 9, 8 lesions): 4.35
SUV(48 h) ([1]; patient 10, 4 lesions): 26.2
SUV(48 h) ([1]; patient 11, 11 lesions): 11.30
SUV(48 h) ([1]; patient 12, 3 lesions): 0.7
SUV(48 h) ([1]; patient 13, 13 lesions): 1.30
SUV(48 h) ([1]; patient 14, 5 lesions): 0.90
SUV(48 h) ([1]; patient 15, 17 lesions): 385.3
SUV(48 h) ([1]; patient 16, 6 lesions): 8.30
SUV(48 h) ([1]; patient 17, 6 lesions): 0.80
SUV(48 h) ([1]; patient 18, 12 lesions): 25.1
SUV(48 h) ([1]; patient 19, 17 lesions): 204.6
SUV(48 h) ([1]; patient 20, 13 lesions): 2.30
SUV(48 h) ([1]; patient 21, 10 lesions): 10.8

[131I-].[Na+] [^131I, Iodine-131]
Maximum Tolerated Activity (mCi) [2]: 426 mCi
AUC 95% PI ([3]; SUV at 48 h 2): 1.5-9.1 uCi · hr/g per mCi
AUC Mean Estimate ([3]; SUV at 48 h 2): 4.0 uCi · hr/g per mCi
AUC 95% PI ([3]; SUV at 48 h 4): 3.3-20.3 uCi · hr/g per mCi
AUC Mean Estimate ([3]; SUV at 48 h 4): 8.1 uCi · hr/g per mCi
AUC 95% PI ([3]; SUV at 48 h 6): 4.8-29.2 uCi · hr/g per mCi
AUC Mean Estimate ([3]; SUV at 48 h 6): 12.1 uCi · hr/g per mCi
AUC 95% PI ([3]; SUV at 48 h 8): 6.4-38.8 uCi · hr/g per mCi
AUC Mean Estimate ([3]; SUV at 48 h 8): 16.1 uCi · hr/g per mCi
AUC 95% PI ([3]; SUV at 48 h 10): 8.6-48.4 uCi · hr/g per mCi
AUC Mean Estimate ([3]; SUV at 48 h 10): 20.2 uCi · hr/g per mCi
AUC 95% PI ([3]; SUV at 48 h 15): 11.9-71.0 uCi · hr/g per mCi
AUC Mean Estimate ([3]; SUV at 48 h 15): 30.3 uCi · hr/g per mCi
AUC 95% PI ([3]; SUV at 48 h 20): 16.1-97.1 uCi · hr/g per mCi
AUC Mean Estimate ([3]; SUV at 48 h 20): 40.4 uCi · hr/g per mCi
AUC 95% PI ([3]; SUV at 48 h 30): 24.3-147.4 uCi · hr/g per mCi
AUC Mean Estimate ([3]; SUV at 48 h 30): 60.6 uCi · hr/g per mCi
AUC 95% PI ([3]; SUV at 48 h 50): 40.8-252.9 uCi · hr/g per mCi
AUC Mean Estimate ([3]; SUV at 48 h 50): 101.2 uCi · hr/g per mCi
AUC 95% PI ([3]; SUV at 48 h 100): 82.3-479.6 uCi · hr/g per mCi
AUC Mean Estimate ([3]; SUV at 48 h 100): 202.6 uCi · hr/g per mCi
AUC 95% PI ([3]; SUV at 48 h 200): 164.2-951.2 uCi · hr/g per mCi
AUC Mean Estimate ([3]; SUV at 48 h 200): 405.8 uCi · hr/g per mCi
AUC 95% PI ([3]; SUV at 48 h 300): 257.8-1476.2 uCi · hr/g per mCi
AUC Mean Estimate ([3]; SUV at 48 h 300): 609.2 uCi · hr/g per mCi
probability of complete reduction [4]: 100%
probability of durable partial RECIST response [4]: 75%
Teff ([5]; patient 1, 13 lesions): 8.02 days
Teff ([5]; patient 2, 18 lesions): 4.28 days
Teff ([5]; patient 3, 14 lesions): 0.45 days
Teff ([5]; patient 4, 12 lesions): 3.16 days
Teff ([5]; patient 5, 10 lesions): 1.48 days
Teff ([5]; patient 6, 16 lesions): 1.59 days
Teff ([5]; patient 7, 23 lesions): 2.48 days
Teff ([5]; patient 8, 6 lesions): 4.41 days
Teff ([5]; patient 9, 8 lesions): 3.03 days
Teff ([5]; patient 10, 4 lesions): 1.26 days
Teff ([5]; patient 11, 11 lesions): 2.98 days
Teff ([5]; patient 12, 3 lesions): 3.8 days
Teff ([5]; patient 13, 13 lesions): 1.55 days
Teff ([5]; patient 14, 5 lesions): 1.74 days
Teff ([5]; patient 15, 17 lesions): 3.79 days
Teff ([5]; patient 16, 6 lesions): 4.77 days
Teff ([5]; patient 17, 6 lesions): 8.04 days
Teff ([5]; patient 18, 12 lesions): 1.69 days
Teff ([5]; patient 19, 17 lesions): 1.55 days
Teff ([5]; patient 20, 13 lesions): 1.74 days
Teff ([5]; patient 21, 10 lesions): 4.63 days
